Measured values reported in patent US20230390310A1, “PERSONALIZED, PRECISE, CONSISTENT BOTANICAL FORMULATIONS ON DEMAND” (ALTOPA, INC, priority 2022, published 2023).
“Also recorded” adds a separate entry of the source.

How the values were obtained:
[1] = Patient-reported outcomes, pain and inflammation (Relief); assay type: in vivo, patients; details: pain / inflammatory conditions (pain and anxiety)
Text: (§1) Relief includes Base Formulations used in connection with more than one patient suffering from pain and/or inflammatory diseases including neuropathic, and nociceptive pain caused by a range of injuries, arthritis, fibromyalgia, fibrosis, shingles, diabetes, and Lyme disease. Some patients suffering from pain were also suffering from COPD. […] For example, in the Table FIG. 1, Base Formulation TF8 has twice as much terpenes as TF7. […] If a patient was experience pain resulting from an inflammatory condition, such as COPD, then it was not necessary to include THC in the patient's formulations. However, if the patient was suffering from a type of pain such as nociceptive or neuropathic, the use of THC was beneficial. Increasing alpha pinene will be beneficial for patients with COPD.
In addition, even when a patient was reporting good symptom relief, patient dosages were titrated up, including both dosing frequency and dose size, to determine whether better relief could be achieved. […] Thereafter, the HCP would revert the formulation back to the previous dosage and constituent amounts. Treatment then continues forward at that reverted level.
(§2) FIG. 10 is a Pain Management Table, FIG. 11 is an Insomnia Table, FIG. 12 is a Cancer Treatment Support Table, FIG. 13 is an Anxiety, Depression, PTSD Management Table, FIG. 14 is a Chronic Obstructive Pulmonary Disease (COPD) Table, and FIG. 15 is a Irritable Bowel Syndrome Table. These are symptom-specific tables which summarize the pharmaceutical compositions where two or more patients, grouped by specific composition have reported moderate to substantial symptom improvement with the use of the specified composition for periods of use ranging from 1 to 24 months. With respect to the Tables in FIGS. 10-15, the amounts specified in the tables represent the mass in milligrams (mg) per 1.0 milliliter (mL). Dosing protocols vary and may involve a dosing volume ranging from 0.1 ml to 1 ml with a frequency of once, twice or three times a day (QD, BID, or TID, respectively), and in some cases used on an as-needed basis.

[2] = Patient-reported outcomes, gastrointestinal disorders (Wisdom); assay type: in vivo, patients; details: 15-100 mg/mL added
Text: Studies have shown that the Wisdom BASE formulations relieve symptoms associated with gastrointestinal disorders, such as IBS and others.
as §2

[3] = Patient-reported side effects and tolerability
[4] = Patient-reported outcomes, insomnia and sleep (Rest); assay type: in vivo, patients; details: THC small amount (0.25-10 mg/ml); terpenes increased by 0.25-3.5 mg/mL
Text: as §2

[5] = Patient-reported outcomes, COPD; assay type: in vivo; details: patients suffering from COPD
Text: as §1
(§3) FIG. 10 is a Pain Management Table, FIG. 11 is an Insomnia Table, FIG. 12 is a Cancer Treatment Support Table, FIG. 13 is an Anxiety, Depression, PTSD Management Table, FIG. 14 is a Chronic Obstructive Pulmonary Disease (COPD) Table, and FIG. 15 is a Irritable Bowel Syndrome Table. These are symptom-specific tables which summarize the pharmaceutical compositions where two or more patients, grouped by specific composition have reported moderate to substantial symptom improvement with the use of the specified composition for periods of use ranging from 1 to 24 months. […]

[6] = Patient-reported outcomes, anxiety, depression, PTSD (Calm / Serenity); assay type: in vivo, patients; details: people with anxiety
Text: FIGS. 2 and 3 show Oblend® Treatment Family (Oblend Tx) Calm formulations and Oblend Tx Serenity formulations. These tables include base formulations (BASE) for subjects suffering from anxiety, depression, and PTSD. The BASE Formulation is selected from Calm or Serenity Tables based on the subject's symptoms.
Some patients respond well to LIM and LOL while others respond better to more sedative terpenes like MYR and TPN. In most cases, patients with anxiety respond well to Calm Tx formulations. […] If a patient suffering from anxiety initially began treatment with the Calm Base and experienced some symptom relief, then, this patient continued taking Calm formulations from Calm or a personalized formulation with a similar terpene profile as Calm.
as §3

CCCCCc1cc(O)c2c(c1)OC(C)(CCC=C(C)C)C=C2 (stereo not shown) [CBC, Cannabichromene]
patient outcomes on adding the ingredient to the formulation [1]: in some cases, patients reported a reduction in symptoms; also recorded: favorable patient outcomes improved dramatically

C=C(C)[C@@H]1CCC(C)=C[C@H]1c1c(O)cc(CCCCC)cc1O [CBD, Cannabidiol]
gastrointestinal symptom relief on adding the ingredient [2]: improved symptom relief

CCCCCc1cc(O)c(C/C=C(\C)CCC=C(C)C)c(O)c1 [CBG, Cannabigerol]
patient outcomes on adding the ingredient to the formulation [1]: some patients reported a reduction in symptoms; also recorded: favorable patient outcomes increased

CCCCCc1cc(O)c2c(c1)OC(C)(C)c1ccc(C)cc1-2 [CBN, Cannabinol]
patient outcomes on adding the ingredient to the formulation [1]: favorable patient outcomes increased

CCCCCc1cc(O)c2c(c1)OC(C)(C)C1CC=C(C)CC21 (stereo not shown) [Delta-8, delta-8-tetrahydrocannabinol]
side-effects compared with Delta-9 THC ([3]; according to most patients): fewer side-effects

CCCCCc1cc(O)c2c(c1)OC(C)(C)[C@@H]1CCC(C)=C[C@@H]21 [THC, Tetrahydrocannabinol, reference compound]
sleep on adding or increasing the ingredient [4]: patients were able to fall asleep; also recorded: improves sleep
patient outcomes on adding the ingredient to the formulation [1]: improved pain relief

CC1=CCC2CC1C2(C)C (stereo not drawn) [alpha-pinene, Alpha Pinene]
COPD outcomes on increasing the terpene [5]: significantly improved outcomes

C=C1CC/C=C(\C)CC[C@@H]2[C@@H]1CC2(C)C [beta Caryophyllene, Beta Caryophyllene]
COPD outcomes on increasing the terpene [5]: significantly improved outcomes
patient outcomes on adding the ingredient to the formulation [1]: significant improvement in symptom relief; also recorded: increased patient outcomes

C=C(C)[C@H]1CC=C(C)CC1 [limonene, Limonene]
anxiety response to the terpene [6]: make some people more anxious

C=CC(C)(O)CCC=C(C)C (stereo not shown) [linalool, Linalool]
sleep on adding or increasing the ingredient [4]: improves sleep

C=CC(=C)CCC=C(C)C [myrcene, Myrcene]
sleep on adding or increasing the ingredient [4]: increased the duration and quality of sleep; also recorded: improves sleep

C=CC(C)(O)CCC=C(C)CCC=C(C)C (stereo not shown) [nerolidol, Nerolidol]
sleep on adding or increasing the ingredient [4]: increased the duration and quality of sleep
allergy ([3]; ingredient of most formulations): some patients are allergic

CC1=CCC(=C(C)C)CC1 [terpinolene, Terpinolene]
sleep on adding or increasing the ingredient [4]: increased the duration and quality of sleep; also recorded: improves sleep
